From PubChem BioAssay (NCI)
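Step 1: Grow cells in 96-well plates. Step 2: Expose to compound for 48 hours at 5 concentrations. Step 3: Interpolate endpoints linearly; if unreached, use highest concentration. Abbreviation: GI50, concentration required for 50% inhibition of growth. TGI: total growth inhibition.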

Key:
Assay in all cases: NCI anticancer screen, dose series, 48 h
SF-268 CNS = system: SF-268 CNS
SNB-19 CNS = system: SNB-19 CNS
SW-620 colon = system: SW-620 colon
PC-3 prostate = system: PC-3 prostate
MDA-MB-435 = system: MDA-MB-435
NCI-H226 lung = system: NCI-H226 lung
A549 NSCLC = system: A549 NSCLC
SK-MEL-28 melanoma = system: SK-MEL-28 melanoma
SNB-75 CNS = system: SNB-75 CNS
UACC-257 melanoma = system: UACC-257 melanoma

Row | SMILES | TGI (SF-268 CNS) [µM] | TGI (SNB-19 CNS) [µM] | TGI (SW-620 colon) [µM] | TGI (PC-3 prostate) [µM] | TGI (MDA-MB-435) [µM] | TGI (NCI-H226 lung) [µM] | TGI (A549 NSCLC) [µM] | TGI (SK-MEL-28 melanoma) [µM] | TGI (SNB-75 CNS) [µM] | TGI (UACC-257 melanoma) [µM] | GI50 (SF-268 CNS) [µM] | GI50 (SNB-19 CNS) [µM] | GI50 (SW-620 colon) [µM] | GI50 (PC-3 prostate) [µM] | GI50 (MDA-MB-435) [µM] | GI50 (NCI-H226 lung) [µM] | GI50 (A549 NSCLC) [µM] | GI50 (SK-MEL-28 melanoma) [µM] | GI50 (SNB-75 CNS) [µM] | GI50 (UACC-257 melanoma) [µM]
1 | CCN(CC)CCSc1c(C(C)=O)c(=O)n(-c2ccccc2)c(=S)n1-c1ccccc1 | 35.8 | 55.8 | 13.4 | 12 | 21.2 | > 60.3 | 30 | 33.3 | > 85.1 | 23.4 |  |  |  |  |  |  |  |  |  | 
2 | CC(=O)OCC1OC(O[C@H]2C=C[C@@H](C(=O)OCc3ccccc3)n3c(=O)n(-c4ccccc4)c(=O)n32)C(OC(C)=O)C(OC(C)=O)C1OC(C)=O (stereo not given in full) | 4.23 | 30.1 | 17 | 13 | 4.45 | 12.5 | 35.3 | 5.28 | 23.5 | 3.73 |  |  |  |  |  |  |  |  |  | 
3 | CN1CCc2c(sc3ncn(Nc4ccc(F)cc4)c(=N)c23)C1 | > 100 | > 100 | > 100 | > 100 | > 100 | > 100 | > 100 | > 100 | > 100 | > 100 |  |  |  |  |  |  |  |  |  | 
4 | OC(Cc1cc(CC(O)(C(F)(F)F)C(F)(F)F)nc(CC(O)(C(F)(F)F)C(F)(F)F)c1)(C(F)(F)F)C(F)(F)F | 4.87 | 8.79 | > 10 | 0.776 | 7.94 | 7.58 | 9.69 | 5.68 | 7.81 | 5.26 |  |  |  |  |  |  |  |  |  | 
5 | c1cc(CSc2ncnc3nc[nH]c23)ccn1 | > 100 | > 100 | > 100 | > 100 | > 100 | > 100 | > 100 | > 100 | > 100 | > 100 |  |  |  |  |  |  |  |  |  | 
6 | O=c1c2cc([N+](=O)[O-])ccc2n2n1CCCCC2 | > 100 | > 100 | > 100 | > 100 | > 100 | > 100 | > 100 | > 100 | > 100 | > 100 |  |  |  |  |  |  |  |  |  | 
7 | O=C(Nc1ccc(Cl)cc1)c1cc(S(=O)(=O)N2CCNNC2=O)c(S)cc1Cl | > 100 | > 100 | > 100 | > 100 | > 100 | > 100 | > 100 | > 100 | > 100 | > 100 |  |  |  |  |  |  |  |  |  | 
8 | CON[N+]([O-])=NC(C)C | > 100 | > 100 | > 100 | > 100 | > 100 | > 100 | > 100 | > 100 | > 100 | > 100 |  |  |  |  |  |  |  |  |  | 
9 | CCCCCCCCCCCCCCCCCCOc1ccccc1COP(=O)(O)OOCC[N+](C)(C)C | 7.19 | 7.76 | 5.36 | 1.8 | 12.3 | 5.54 | 23.6 | 6.2 | 3.51 | 6.45 | 1.55 | 1.44 | 1.43 | 0.824 | 2.65 | 1.16 | 5.5 | 1.59 | 0.96 | 1.54
10 | N=c1oc2cc(O)ccc2cc1C(=O)Nc1cccc2ccccc12 | 57.2 | 35.4 | 45.9 | 10.2 | 6.54 | 16.6 | 23.2 | 34.4 | 13.9 | 41.2 |  |  |  |  |  |  |  |  |  | 
11 | C=C(C)[C@H]1CC(=O)[C@@]2(C)C[C@H]3O[C@]3(C)CC/C=C(\C)CC[C@H]12 | > 100 | > 100 | > 100 | 86.2 | > 100 | > 100 | > 100 | > 100 | > 100 | 55.8 |  |  |  |  |  |  |  |  |  | 
12 | CC1(C)[C@H]2Cc3cc4nc5ccccn5c4cc3[C@@H]1C2 | 34.5 | 31.8 | 52.5 | 41.5 | 36.7 | 35.4 | 40.7 | 36.3 | 31.6 | 34.2 |  |  |  |  |  |  |  |  |  | 
13 | C=C(C)CCC(O)[C@](C)(O)[C@H]1[C@H](O)C[C@@]2(C)[C@@H]3CCc4c(cc(OC5OC(CO)C(O)C(O)C5O)c(O)c4C)C3(C)C(=O)C[C@]12C (stereo not given in full) | > 100 | > 100 | > 100 | > 100 | > 100 | > 100 | > 100 | > 100 | > 100 | > 100 |  |  |  |  |  |  |  |  |  | 
14 | Cn1c(=O)c2c(=O)cc(N)[nH]c2n(C)c1=O | > 100 | > 100 | > 100 | > 100 | > 100 | > 100 | > 100 | > 100 | > 100 | > 100 |  |  |  |  |  |  |  |  |  | 
15 | CC1(C)N([O-])[N+](=O)C1(C)O (stereo not given) | > 100 | > 100 | > 100 | > 100 | > 100 | > 100 | > 100 | > 100 | > 100 | > 100 |  |  |  |  |  |  |  |  |  | 
16 | O=C(O)c1ccc(Nc2cnc3cc(C(F)(F)F)ccc3n2)cc1 | > 100 | > 100 | > 100 | > 100 | > 100 | > 100 | > 100 | > 100 | > 100 | > 100 |  |  |  |  |  |  |  |  |  | 
17 | CC/C=C\C=C/C(=O)N/C=C/CCC | > 100 | > 100 | > 100 | > 100 | > 100 | > 100 | > 100 | > 100 | > 100 | > 100 |  |  |  |  |  |  |  |  |  | 

Row | SMILES | TGI (SF-268 CNS) [µM] | TGI (SNB-19 CNS) [µM] | TGI (SW-620 colon) [µM] | TGI (PC-3 prostate) [µM] | TGI (MDA-MB-435) [µM] | TGI (NCI-H226 lung) [µM] | TGI (A549 NSCLC) [µM] | TGI (SK-MEL-28 melanoma) [µM] | TGI (SNB-75 CNS) [µM] | TGI (UACC-257 melanoma) [µM] | GI50 (SF-268 CNS) [µM] | GI50 (SNB-19 CNS) [µM] | GI50 (SW-620 colon) [µM] | GI50 (PC-3 prostate) [µM] | GI50 (MDA-MB-435) [µM] | GI50 (NCI-H226 lung) [µM] | GI50 (A549 NSCLC) [µM] | GI50 (SK-MEL-28 melanoma) [µM] | GI50 (SNB-75 CNS) [µM] | GI50 (UACC-257 melanoma) [µM]
18 | S=C(S)NCCN1CCNCC1 | > 100 | > 100 | > 100 | > 100 | > 100 | > 100 | > 100 | > 100 | > 100 | 59 |  |  |  |  |  |  |  |  |  | 
19 | COc1cc(N(CCCl)CCCl)ccc1/C=N\NC(=O)c1cccnc1 | > 100 | > 100 | > 100 | > 100 | > 100 | 9.47 | > 100 | > 100 | > 100 | 63.3 | 36.6 | 52.8 | 30.4 | 21.4 | 30.3 | 1.72 | 12.1 | 48.4 | 37.1 | 15.3
20 | CCCCCCCCCCCCCCCC(=O)OC1C(O)C(O)C(O)C(O)C12CO2 (stereo not given) | > 100 | > 100 | 40 | 89.7 | > 100 | > 100 | > 100 | > 100 | 93.2 | > 100 |  |  |  |  |  |  |  |  |  | 
21 | C#CCNC(=O)CC[C@@H](C)[C@H]1CC[C@H]2[C@@H]3CC[C@@H]4CC(=O)CC[C@]4(C)[C@H]3CC[C@]12C | 44.4 | 71 | 43.7 | 24.2 | 60.1 | 36.2 | > 100 | 36 | 33.5 | 42.3 | 17.5 | 24.3 | 17.8 | 2.91 | 18.7 | 14.8 | 17.4 | 16.8 | 10.9 | 13.2
22 | CN(/N=C/C=N/N(C)C1=NCCN1)C1=NCCN1 | > 100 | > 100 | > 100 | > 100 | > 100 | > 100 | > 100 | > 100 | > 100 | > 100 |  |  |  |  |  |  |  |  |  | 
23 | C=C(C)COc1cc(NC(=S)OC(C)C)ccc1Cl | 40.6 | 33.4 | 27.6 | 28.6 | 28.6 | 32.7 | 25.8 | 31.8 | 29.8 | 31.8 |  |  |  |  |  |  |  |  |  | 
24 | CC(C)c1c(O[Si](C(C)C)(C(C)C)C(C)C)cc2c(c1O)CC[C@H]1C(C)(C)CCC[C@]21C | > 100 | > 100 | > 100 | > 100 | > 100 | > 100 | > 100 | > 100 | > 100 | > 100 |  |  |  |  |  |  |  |  |  | 
25 | O=C(/C=C/c1cccc(Br)c1)N1CCN(CCOC(c2ccccc2)c2ccccc2)CC1 | > 100 | > 100 | > 100 | > 100 | > 100 | > 100 | > 100 | > 100 | > 100 | > 100 |  |  |  |  |  |  |  |  |  | 
26 | COc1ccc(Nc2cc(=O)[nH]c(=O)[nH]2)cc1 | > 100 | > 100 | > 100 | > 100 | > 100 | > 100 | > 100 | > 100 | > 100 | > 100 |  |  |  |  |  |  |  |  |  | 
27 | CC(C)C(/C=C/c1ccc(Cl)cc1)=N\NC(=O)N/N=C(/C=C/c1ccc(Cl)cc1)C(C)C | 41.3 | 38.8 | > 100 | > 100 | 87.6 | 54.9 | 41.5 | > 100 | 39 | > 100 |  |  |  |  |  |  |  |  |  | 
28 | COc1ccc2nc3cc(Cl)ccc3c(NCCCCCC(=O)NC(COc3ccc4ccc5cccnc5c4n3)COc3ccc4ccc5cccnc5c4n3)c2c1 | 34.9 | > 100 | 33 | 28.4 | > 100 | 35.1 | 50.1 | 49 | 35.4 | 42.8 |  |  |  |  |  |  |  |  |  | 
29 | Nc1ncnc2c1ccn2-c1cccc(NC(=O)c2ccc(N3CCOCC3)c(C(F)(F)F)c2)c1 | 13.1 | 13 | 17.8 | 10.4 | 13.2 | 14.3 | 15.2 | 23 | 9.02 | 22.1 | 3.44 | 3.96 | 4.23 | 2.51 | 2.64 | 3.51 | 3.41 | 4.76 | 1.31 | 4.99
30 | Cc1cccc(N=N/C(=N\NC(=O)c2cc(Cl)ccc2O)c2ccc(N(CCC#N)CCC#N)cc2C)c1 | > 100 | > 100 | > 100 | > 100 | > 100 | > 100 | > 100 | > 100 | > 100 | 97.6 |  |  |  |  |  |  |  |  |  | 
31 | COc1cc(OC)c(/C=N\Nc2nc3ccccc3c(=O)n2-c2ccccc2)c(OC)c1 | > 100 | 78.6 | > 100 | 53.7 | > 72.7 | 44 | > 78.5 | 87.2 | > 100 | > 76.5 |  |  |  |  |  |  |  |  |  | 
32 | CCCCCCCCCCCCc1ccsc1-c1ccc(-c2ccc(-c3sccc3CCCCCCCCCCCC)s2)s1 | > 100 | > 100 | > 100 | > 100 | > 100 | > 100 | > 100 | > 100 | > 100 | > 100 |  |  |  |  |  |  |  |  |  | 
33 | O=C(OCC(OC(=O)c1ccccc1)C1CC(C2(O)CCCCC2)C(=O)O1)c1ccccc1 (stereo not given) | > 25 | > 25 | > 25 | > 25 | > 25 | > 25 | > 25 | > 25 | > 25 | > 25 |  |  |  |  |  |  |  |  |  | 
